# According to patent US20160279207A1, “TARGETING GDF6 AND BMP SIGNALING FOR ANTI-MELANOMA THERAPY” (University of Massachusetts, priority 2015, published 2016):
# “Also recorded” adds a separate entry of the source.
# Legend:
# SKMEL28 melanoma cells = experiment: Growth curves of SKMEL28 cells by direct cell counting; assay type: cell-based, human; conditions: DMH1 vs control
# Method: (§1) For growth curves 50,000 live cells were seeded per well in a 6-well tissue culture plate on day 0. The numbers of live cells were calculated every day using an automated cell counter (Nexcelom Bioscience Cellometer Auto T4) following standard procedures. All assays were performed with technical replicates. For clonogenic assays, 3,000 live cells were seeded in a 10 cm tissue culture plate. After 3 weeks, colonies were fixed and stained using bromophenol blue in acetone. ImageJ was used to quantify the number of colonies. In assays with DMH1 treatment, control or DMH1-containing media was replaced every other day. For soft agar assays a 0.5% bottom layer (1:1 with 1% agar and 2X DMEM with 20% FBS) and a 0.3% top layer (1:1 with 0.6% agar and 2× DMEM with 20% FBS) were used. 3,000 live cells per well of a 6-well tissue culture plate were added in the top layer. Media was added initially then replaced every 3 days. After 3 weeks, colonies were stained with nitroblue tetrazolium chloride overnight at 37° C. Once stained, individual wells were photographed, and ImageJ was used to count the number of colonies. All these assays were done in triplicate, and experiments were repeated at least twice. A representative image of each has been shown.
# BMP signaling = experiment: Western blot of phospho-SMAD1 relative to total SMAD in DMH1-treated A375 cells; assay type: cell-based, human; conditions: 10 μM DMH1 vs control media
# Method: Protein extracts were prepared as previously described (S. D. Epstein L B, Hunte-McDonough B, harris C A, Cytokines: A pratical approach (Balkwill F R., ed). 81-93 (1991)). Extracts were separated on 12% SDS-PAGE gels. Blots were probed with primary antibodies (GDF6 (Sigma PRS4691; 1:1000), phospho-SMAD1/5/8 (Cell Signaling 13820; 1:1000), SMAD1 (Cell Signaling 9743; 1:500), Total SMAD1/5/8 (Santa Cruz sc-6031-R; 1:1000), FLAG (Sigma F3165, 1:2000), GAPDH (Abcam 8245; 1:2000)) overnight at 4° C., washed five times in TBS plus 0.1% Tween (TBST) and then incubated with the appropriate HRP-conjugated secondary antibody (Jackson Labs) for 1 hour at room temperature. Membranes were washed five times in TBST and visualized on autoradiography film after incubating with ECL reagent (Supersignal West Pico or Supersignal West Femto; Thermo Scientific).
# A375 melanoma cells [1] = experiment: Clonogenic growth (colony formation) assay; assay type: cell-based, human; conditions: A375-EMPTY vs A375-SMAD1DVD, 10 μM DMH1 in 0.1% DMSO
# Method: as §1, with “After 3 weeks, colonies were fixed and stained using bromophenol blue in acetone.” left out
# A375 melanoma cells [2] = experiment: A375 melanoma xenograft in nude mice, tumor volume; assay type: in vivo, mouse; conditions: 25 mg/kg DMH1 intraperitoneally every other day, A375 cells in BALB/c nu/nu mice
# Method: An art-accepted model to test for an agent's effects on melanoma is that of using immunocompromised (“nude”) mice which are then injected subcutaneously with melanoma cells, and then concomitant with injection of the cells, sometime after injection, and/or after tumor establishment, the test agent is appropriately administered (e.g., intravenously, peritoneally, orally, etc.). Control and treated animals are monitored in part for tumor growth, tumor stabilization, and tumor regression (see for example, Yang et al. 2010. Cancer Res., 70:5518-5527 and Bollag et al. 2010. Nature. 467:596-599).
# All animal protocols were approved by the UMMS Institution Animal Care and Use Committee (A-2016, A-2171). Mice were randomly allocated to individual experimental groups. No blinding was done as animal groups were identified by tagging and cage labeling. Animals were excluded, according to pre-established criteria, if the tumor volume reached >1,000 mm^3; if tumor size or location affected the mobility or general health of animal, the animal was euthanized and excluded from the experiment or the complete experiment was terminated. A375 cells stably expressing an EGFP or GDF6 or SMAD1 shRNA and/or empty vector or GDF6-expressing vector or SMAD1DVD-overexpressing vector were subcutaneously injected into the flanks of 6-8-week-old BALB/c nu/nu female mice (Taconic Farms) to produce orthotopic primary tumor. Primary tumor growth was monitored every 3 days with calipers, and the tumor volume was calculated as described previously (C. Gazin, N. Wajapeyee, S. Gobeil, C. M. Virbasius, M. R. Green, An elaborate pathway required for Ras-mediated epigenetic silencing. Nature 449, 1073-1077 (2007)). For GDF6 knockdown, SMAD1 knockdown and epistasis experiments, 1×10^7 live cells were injected. For GDF6 overexpression experiments, 1×10^6 live cells were injected. For GDF6 overexpression and GDF6 knockdowns, a representative of two independent experiments (n=3 animals per experiment) is shown. For DMH1 drug experiments, 1×10^6 live A375 cells were subcutaneously injected in the flanks of BALB/c nu/nu female mice. Beginning on the day cells were injected, mice were injected intraperitoneally with vehicle 12.5% 2-hydroxypropyl-β-cyclodextrin or 25 mg/kg DMH1 in vehicle every other day. The growth of the tumor was monitored as described above. This experiment was repeated twice and the weighted average of both experiments (n=8 total) is represented.
# A375 melanoma cells [3] = experiment: Growth curves of A375 cells by direct cell counting; assay type: cell-based, human; conditions: 10 μM DMH1 vs control
# Method: as §1
compound,measurement,setting,value
CC(C)Oc1ccc(-c2cnc3c(-c4ccnc5ccccc45)cnn3c2)cc1 [DMH1],SKMEL28 melanoma cell growth (growth curves),SKMEL28 melanoma cells,grew more slowly than did control cells
same,level of phospho-SMAD1 relative to total SMAD protein,BMP signaling,reduced level of phospho-SMAD1 relative to total SMAD protein
same,colony formation of DMH1-treated cells expressing SMAD1DVD,A375 melanoma cells [1],reversed by SMAD1DVD
same,"tumor growth (tumor volume over time), DMH1 vs vehicle",A375 melanoma cells [2],smaller tumors arose and grew more slowly; also recorded: decreased tumorigenicity; also recorded: abrogates melanoma growth in mouse xenografts in vivo
same,A375 melanoma cell growth (growth curves),A375 melanoma cells [3],grew more slowly than did control cells; also recorded: inhibits A375 melanoma cell growth
